Source: patent US6274330A, “L-AP4 sensitive glutamate receptors” (ZymoGenetics, Inc., priority 1993, dated 2001)
“Also recorded” adds a separate entry of the source.

Tests used:
[1] = target: T1, mGluR7 (Rattus norvegicus, UniProt P35400); experiment: Inhibition of forskolin-stimulated cAMP production in BHK cells transfected with mGluR7; format: cell-based; conditions: for antagonism of the inhibition of cAMP produced by L-AP4: antagonist 1 mM; for inhibition of forskolin-stimulated cAMP production: forskolin 10 μM, 10 minutes, IBMX 1 mM; for decrease in cAMP: agonist 100 μM; for agonist potency at mGluR7 compared with that previously observed for mGluR4 or mGluR6: cAMP inhibition, no full concentration-response analysis
T1 construct: RNA-injected Xenopus oocytes
Procedure: FIG. 2 depicts the inhibition of forskolin-stimulated cAMP production by mGluR7 in baby hamster kidney cells. BHK cells transfected with mGluR7 were preincubated for 20 minutes in IBMX (1 mM), then incubated for 10 minutes with forskolin (10 μM) in the presence or absence of agonists or antagonists.
BHK cells were transfected with mGluR7 subcloned into pZEM229R. Plasmid pZEM229R is a pUC18-based expression vector containing an EcoRI cloning site between a mouse metallothionein-I promoter and an SV40 transcription terminator. The vector also contains an expression unit of the SV40 early promoter, mouse dihydrofolate reductase gene, and SV40 terminator. The two expression units are in opposite orientations with their respective promoters adjacent to each other. E. coli HB101 transformed with pZEM229R was deposited with American Type Culture Collection, 12301 Parklawn Drive, Rockville, MD on Sep. 28, 1993.
(§1) The cells were grown in 10% fetal calf serum and Dulbecco's minimal essential media (DMEM), and transfected clones were selected by methotrexate resistance. Resistant clones were assayed for the presence of mGluR7 RNA and protein. Confluent cells were assayed for cAMP production (Amersham) in the presence of IBMX (1 mM) isobutylmethylxanthine; cAMP levels were measured after 10 minute treatment with forskolin (10 μM) in the presence or absence of mGluR agonists or antagonists. Assays were performed in triplicate three times and the average value from these experiments expressed as the mean cAMP levels plus and minus the standard deviation. The basal cAMP production was subtracted from the stimulated levels and the inhibition was plotted as a percent of the forskolin-stimulated control.

[2] = system: mGluR4; experiment: Forskolin-stimulated cAMP assay in a BHK clone expressing mGluR4; format: cell-based; conditions: L-AP4 1 mM
[3] = system: wild-type BHK cells; experiment: cAMP levels in wild-type BHK cells; format: cell-based, hamster
Procedure: as §1

[4] = target: T1, mGluR7; experiment: Calcium-activated chloride current in Xenopus oocytes injected with mGluR7 mRNA (two-electrode voltage clamp); format: cell-based
Procedure: (§2) For oocyte expression studies, xenopus laevis (Xenopus I, Ann Arbor) were anesthetized with tricaine and oocytes harvested using sterile technique. RNA transcripts from mGluR1 and mGluR7 were injected into Stage V-VI oocytes (1-100 ng RNA/oocyte) and the oocytes were assayed for production of a calcium-activated chloride current using a two-electrode voltage clamp. Harvesting of oocytes, solutions and recording methods were as described by Lester and colleagues (Dascal et al., Brain Res. 387: 201-209 [1986], which is incorporated herein by reference).

[5] = system: mGluR1; experiment: Calcium-activated chloride current in Xenopus oocytes injected with mGluR1 mRNA (two-electrode voltage clamp); format: cell-based; conditions: sister oocytes injected with mGluR1 mRNA
Procedure: as §2

[6] = agonist 1 mM, BHK cells expressing mGluR7

T1 sequence (P35400 35-915): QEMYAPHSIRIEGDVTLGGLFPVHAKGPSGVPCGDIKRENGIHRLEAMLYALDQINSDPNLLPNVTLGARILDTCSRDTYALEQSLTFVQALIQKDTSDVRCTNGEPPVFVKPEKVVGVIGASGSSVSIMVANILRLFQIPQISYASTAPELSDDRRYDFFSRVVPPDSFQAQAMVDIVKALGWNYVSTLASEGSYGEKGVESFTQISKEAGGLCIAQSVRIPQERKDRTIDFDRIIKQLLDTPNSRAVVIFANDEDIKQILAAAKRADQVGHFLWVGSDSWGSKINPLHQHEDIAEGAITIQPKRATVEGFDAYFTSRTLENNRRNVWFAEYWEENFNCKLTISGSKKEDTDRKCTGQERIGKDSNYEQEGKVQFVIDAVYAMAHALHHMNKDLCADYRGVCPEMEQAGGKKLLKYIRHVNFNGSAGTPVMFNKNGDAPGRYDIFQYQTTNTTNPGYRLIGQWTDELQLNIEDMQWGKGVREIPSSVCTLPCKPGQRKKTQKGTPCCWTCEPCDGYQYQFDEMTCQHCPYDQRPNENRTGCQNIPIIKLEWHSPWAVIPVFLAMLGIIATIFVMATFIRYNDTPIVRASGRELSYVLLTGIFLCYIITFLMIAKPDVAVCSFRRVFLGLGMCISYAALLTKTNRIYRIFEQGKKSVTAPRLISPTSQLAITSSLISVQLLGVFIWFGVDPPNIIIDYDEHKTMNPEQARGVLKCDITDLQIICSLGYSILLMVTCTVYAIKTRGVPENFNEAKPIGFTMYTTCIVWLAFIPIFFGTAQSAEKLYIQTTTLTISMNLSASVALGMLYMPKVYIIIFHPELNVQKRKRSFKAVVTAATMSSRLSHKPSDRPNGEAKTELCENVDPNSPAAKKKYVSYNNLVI

Row | Compound | antagonism of the inhibition of cAMP produced by L-AP4 ([1]; BHK cells expressing mGluR7) | inhibition of forskolin-stimulated cAMP production [1, 6] | decrease in cAMP ([1]; BHK cells expressing mGluR7) | agonist potency at mGluR7 compared with that previously observed for mGluR4 or mGluR6 [1] | further results
1 | CC(N)(C(=O)O)c1ccc(C(=O)O)cc1 (racemic) [MCPG, RS-α-methyl-4-carboxyphenylglycine] | did not antagonize |  |  |  | 
2 | N[C@@]1(C(=O)O)CC[C@@H](C(=O)O)C1 [ACPD, (1S,3R)-1-aminocyclopentane-1,3-dicarboxylic acid] |  | less efficient; also recorded: much less effective |  |  | 
3 | N[C@@H](CP(=O)(O)O)C(=O)O [L-AP3, 2-amino-3-phosphonopropionic acid] | did not antagonize |  |  |  | antagonism of mGluR7-mediated cAMP inhibition ([1]; antagonist 3 mM, BHK cells expressing mGluR7): did not antagonize
4 | N[C@@H](CCP(=O)(O)O)C(=O)O [L-AP4, L-2-amino-4-phosphonobutryic acid] |  | largest inhibition; also recorded: inhibited | small decreases in cAMP which were not statistically significant | much less potent agonists | inhibition (cAMP) in BHK clone expressing mGluR4 [2]: 45%; effect on basal cAMP levels [3]: no significant effect; effect on forskolin-stimulated cAMP levels [3]: no significant effect
5 | N[C@@H](CCC(=O)O)C(=O)O [glutamate] |  | less efficient; also recorded: inhibited | small decreases in cAMP which were not statistically significant | much less potent agonists | glutamate response (calcium-activated chloride current) [4]: no glutamate responses; glutamate response (calcium-activated chloride current) [5]: large calcium-activated chloride currents
6 | N[C@@H](Cn1oc(=O)[nH]c1=O)C(=O)O [quisqualate] |  |  |  |  | inhibition of forskolin-stimulated cAMP production ([1]; agonist 0.5 mM, BHK cells expressing mGluR7): less efficient; also recorded: much less effective
